Our source for the GI50 and TGI values is PubChem BioAssay (NCI).

Test systems include TK-10 renal; HCT-15 colon; NCI-H23 lung; UO-31 renal; SF-268 CNS; NCI-H226 lung; NCI/ADR-RES ovarian; NCI-H460 lung; OVCAR-4 ovarian; OVCAR-5 ovarian.
Common to all, as to assay: DTP human tumour cell line panel, 48 h

SMILES strings stand for the structures.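 Following 48 hours of exposure in 96-well plates, responses at five concentrations were used to interpolate endpoints linearly. The concentration for 50% growth inhibition is given as GI50. TGI denotes the concentration required for complete inhibition of growth.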 A value given as a limit tells only on which side of the number the result lay.

Broadly, the GI50 is the concentration at which growth is held to half of that of the control. A word on the TGI: it is the concentration at which net growth stops. A high value points to lower sensitivity of the cells. For the compound `O=C(Nc1n[nH]c2nc(-c3ccco3)c(Br)cc12)C1CC1`, the GI50 with TK-10 renal, in the assay on HCT-15 colon, in the assay on NCI-H23 lung, in the assay with UO-31 renal, with SF-268 CNS and in the assay on NCI-H226 lung was more than 25 µM each time. The GI50 in the assay on NCI/ADR-RES ovarian, with NCI-H460 lung, with OVCAR-4 ovarian and with OVCAR-5 ovarian was more than 25 µM in each case. The total growth inhibition concentration (TGI) in the assay on TK-10 renal, in the assay with HCT-15 colon, in the assay on NCI-H23 lung, in the assay with UO-31 renal, in the assay on SF-268 CNS and in the assay on NCI-H226 lung was more than 25 µM each time. Besides, the TGI with NCI/ADR-RES ovarian, with NCI-H460 lung, in the assay with OVCAR-4 ovarian and with OVCAR-5 ovarian was more than 25 µM throughout.

Take `Nc1cccc2c1C(=O)N(C1CCC(=O)NC1=O)C2=O` (centres undefined): the GI50 in the assay on TK-10 renal, in the assay with HCT-15 colon, in the assay on NCI-H23 lung, in the assay with UO-31 renal, in the assay on SF-268 CNS and with NCI-H226 lung was more than 100 µM throughout. Besides, the GI50 in the assay on NCI/ADR-RES ovarian, in the assay with NCI-H460 lung, with OVCAR-4 ovarian and with OVCAR-5 ovarian was more than 100 µM in each case. Besides, the TGI with TK-10 renal, in the assay with HCT-15 colon, in the assay with NCI-H23 lung, with UO-31 renal, in the assay with SF-268 CNS and in the assay on NCI-H226 lung was more than 100 µM throughout. In addition, the TGI in the assay on NCI/ADR-RES ovarian, in the assay on NCI-H460 lung, in the assay with OVCAR-4 ovarian and with OVCAR-5 ovarian was more than 100 µM throughout.

Turning to `COc1cc(-c2cc(C(=O)N3CCN(C(=O)c4ccccc4NCc4ccco4)CC3)nc3cc(-c4ccccc4)nn23)cc(OC)c1OC`, the GI50 was 6.74 µM in the assay with TK-10 renal; 3.4 µM in the assay on HCT-15 colon; 5.5 µM in the assay with NCI-H23 lung; 3.71 µM with UO-31 renal; 4.38 µM in the assay on SF-268 CNS; 5.48 µM in the assay on NCI-H226 lung. In addition, the GI50 with NCI/ADR-RES ovarian is 1.2 µM; with NCI-H460 lung it was 2.55 µM; in the assay with OVCAR-4 ovarian, more than 26.1 µM; in the assay on OVCAR-5 ovarian it was 9.66 µM. In addition, the TGI in the assay on TK-10 renal, with HCT-15 colon, with NCI-H23 lung, with UO-31 renal, in the assay on SF-268 CNS and in the assay with NCI-H226 lung was more than 100 µM each time. Further, the concentration for total growth inhibition (TGI) is more than 31.8 µM in the assay on NCI/ADR-RES ovarian, more than 100 µM in the assay with NCI-H460 lung, more than 100 µM in the assay with OVCAR-4 ovarian and more than 100 µM in the assay on OVCAR-5 ovarian.

Turning to `COc1ccccc1C(=O)/C=C/c1cc2cccc(OC)c2[nH]c1=O`, the GI50 is 1.14 µM with TK-10 renal; 0.027 µM in the assay with HCT-15 colon; 0.125 µM in the assay with NCI-H23 lung; 0.115 µM in the assay with UO-31 renal; 0.0935 µM in the assay on SF-268 CNS; 0.0716 µM in the assay with NCI-H226 lung. The concentration for 50% growth inhibition (GI50) in the assay on NCI/ADR-RES ovarian was 0.0194 µM; with NCI-H460 lung, 0.0243 µM; with OVCAR-4 ovarian, 0.314 µM; in the assay with OVCAR-5 ovarian, 0.321 µM. The TGI turned out to be 11.5 µM in the assay on TK-10 renal; 1.73 µM with HCT-15 colon; 2.04 µM with NCI-H23 lung; 1.68 µM with UO-31 renal; 2.06 µM in the assay with SF-268 CNS; 3.47 µM in the assay with NCI-H226 lung. The TGI in the assay on NCI/ADR-RES ovarian was determined as 13.6 µM; with NCI-H460 lung it was 0.524 µM; in the assay on OVCAR-4 ovarian, 8.37 µM; in the assay with OVCAR-5 ovarian, 2.89 µM.

`O=C1/C(=C\c2ccc(Cl)cc2)CN(C(=S)Nc2ccccc2)C/C1=C\c1ccc(Cl)cc1`: the GI50 was 1.96 µM with TK-10 renal; 0.283 µM with HCT-15 colon; 1.3 µM with NCI-H23 lung; 1.21 µM with UO-31 renal; 0.754 µM with SF-268 CNS; 1.64 µM in the assay on NCI-H226 lung. Further, the GI50 was 2.54 µM in the assay with NCI/ADR-RES ovarian, 0.471 µM with NCI-H460 lung, 0.343 µM in the assay on OVCAR-4 ovarian and 1.47 µM with OVCAR-5 ovarian. For the same compound, the TGI with TK-10 renal is 4.48 µM; in the assay with HCT-15 colon, 3.27 µM; with NCI-H23 lung, 3.92 µM; with UO-31 renal, 2.56 µM; in the assay on SF-268 CNS it was 2.26 µM; with NCI-H226 lung, 4.58 µM. The TGI with NCI/ADR-RES ovarian came out at 18.4 µM; in the assay on NCI-H460 lung, 2.15 µM; in the assay on OVCAR-4 ovarian, 2.77 µM; in the assay with OVCAR-5 ovarian, 3.49 µM.

Turning to `O=[N+]([O-])c1ccc(N/N=C\c2cc(Cl)ccc2O)nc1`, the GI50 is 2 µM in the assay with TK-10 renal; 0.735 µM with HCT-15 colon; 0.541 µM with NCI-H23 lung; 0.3 µM in the assay on UO-31 renal; 0.595 µM in the assay with SF-268 CNS; 20.9 µM in the assay on NCI-H226 lung. Moreover, the GI50 in the assay with NCI/ADR-RES ovarian is 0.388 µM; in the assay on NCI-H460 lung, 1.66 µM; in the assay on OVCAR-4 ovarian, 1.72 µM; in the assay with OVCAR-5 ovarian it was 8.88 µM. In addition, the total growth inhibition concentration (TGI) in the assay with TK-10 renal is 23.6 µM; in the assay with HCT-15 colon it was more than 100 µM; in the assay on NCI-H23 lung, 9 µM; with UO-31 renal, 5.45 µM; with SF-268 CNS, 22.9 µM; in the assay with NCI-H226 lung, more than 100 µM. In addition, the TGI is 8.32 µM in the assay with NCI/ADR-RES ovarian, 13.6 µM in the assay with NCI-H460 lung, 13.7 µM in the assay with OVCAR-4 ovarian and more than 100 µM with OVCAR-5 ovarian.

In the case of `C[C@H]1[C@H](OC(=O)CCC(=O)O)O[C@@H]2O[C@]3(C)CC[C@H]4[C@H](C)CC[C@@H]1[C@@]24OO3`, the total growth inhibition concentration (TGI) in the assay on TK-10 renal was determined as 11.6 µM; in the assay on HCT-15 colon, 16.1 µM; in the assay on NCI-H23 lung, 10.7 µM; with UO-31 renal, 7.38 µM; with SF-268 CNS, 43.2 µM; in the assay with NCI-H226 lung it was 34.6 µM. Besides, the TGI came to 6.15 µM in the assay on NCI/ADR-RES ovarian, 41.6 µM in the assay on NCI-H460 lung, 28.1 µM with OVCAR-4 ovarian and 20.5 µM in the assay with OVCAR-5 ovarian. Moreover, the concentration for 50% growth inhibition (GI50) with HCT-15 colon was 0.107 µM; in the assay on NCI-H23 lung, 0.383 µM; in the assay with UO-31 renal, 0.398 µM; in the assay on SF-268 CNS, 1.04 µM; in the assay on NCI-H226 lung it was 0.956 µM; with NCI/ADR-RES ovarian, 0.482 µM. Moreover, the GI50 with NCI-H460 lung was 1.24 µM; with OVCAR-4 ovarian, 1.28 µM; in the assay with OVCAR-5 ovarian it was 0.669 µM.
